Laboratory results from US20240277698A1, “METHODS OF USING ALDOSTERONE SYNTHASE INHIBITORS” (CINCOR PHARMA, INC., priority 2021, published 2024).
“Also recorded” adds a separate entry of the source.

Key:
CYP11B1 = biological target: T1, CYP11B1 (Homo sapiens, UniProt P15538); assay: MAD study: plasma cortisol (free and total) and 11-deoxycortisol, with and without Cortrosyn challenge; format: in vivo; details: for cortisol (total or free) or 11-deoxycortisol: doses ≤5 mg, including Cortrosyn challenge
T1 construct: endogenous in cells; host or cells: adrenal cortex of healthy human subjects (in vivo, oral dosing)
T1 sequence (P15538 25-503): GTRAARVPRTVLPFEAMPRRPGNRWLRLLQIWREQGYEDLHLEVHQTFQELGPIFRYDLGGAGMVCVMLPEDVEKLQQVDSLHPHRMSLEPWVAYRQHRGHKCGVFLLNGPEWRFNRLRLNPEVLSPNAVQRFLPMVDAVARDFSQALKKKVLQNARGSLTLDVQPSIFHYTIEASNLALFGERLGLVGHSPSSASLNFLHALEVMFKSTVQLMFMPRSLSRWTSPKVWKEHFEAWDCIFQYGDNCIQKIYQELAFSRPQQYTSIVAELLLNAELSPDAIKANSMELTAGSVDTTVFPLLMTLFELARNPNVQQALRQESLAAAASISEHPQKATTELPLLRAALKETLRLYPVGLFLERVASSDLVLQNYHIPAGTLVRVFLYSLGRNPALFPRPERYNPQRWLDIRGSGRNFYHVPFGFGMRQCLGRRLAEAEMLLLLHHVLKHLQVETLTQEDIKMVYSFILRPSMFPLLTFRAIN
Source text: For each subject, the study consisted of: • A screening period of up to 28 days; • A 5-day inpatient run-in period during which subjects adhered to a controlled, standardized diet and underwent baseline PD assessments; • A 15-day inpatient treatment period, during which subjects received (R)-compound 1 or placebo once daily for 10 days while adhering to a controlled, standardized diet, followed by PK and PD sampling over an additional 5 days; and • A follow-up visit 3 days (1 day) after discharge from the clinical unit. • A cortisol stimulation test (Cohorts 1 and 2 only) and standing aldosterone assessment (all cohorts) were performed on Days 1 and 10. Serial blood samples for PK and PD were obtained prior to and at specified time points over 24 hours after dosing on Day 1 as well as prior to and at specified time points over 120 hours after dosing on Day 10. In addition, blood samples for PK were collected prior to dosing on Days 8 and 9. Urine for PK and PD measurements was collected over 24 hours starting just prior to dosing on Day 1 as well as over 120 hours starting just prior to dosing on Day 10.
These findings are consistent in the presence of Cortrosyn challenge (which occurred with the low salt treatment groups) and in the absence of the challenge (normal salt groups) (Table 13).

[1] = Absolute bioavailability, 3 mg IV versus 3 mg oral; format: in vivo; details: human, plasma
[2] = Day 1, 2.5 mg, normal salt diet
[3] = Day 1, 5.0 mg, low salt diet (Cortrosyn challenge)
[4] = Day 10, 0.5 mg, normal salt diet
[5] = Day 10, 1.5 mg, normal salt diet
[6] = Day 10, 2.5 mg, low salt diet (Cortrosyn challenge)
[7] = Day 10, 2.5 mg, normal salt diet
[8] = Day 10, 5.0 mg, low salt diet (Cortrosyn challenge)

Question: What does the source list for `CCC(=O)N[C@@H]1CCCc2c(-c3ccc4c(c3)CCC(=O)N4C)cncc21` [(R)-Compound 1, (R)—N-(4-(1-methyl-2-oxo-1,2,3,4-tetrahydroquinolin-6-yl)-5,6,7,8-tetrahydroisoquinolin-8-yl)propionamide]?
Answer: Plasma 11-deoxycortisol AUC0-12 estimated percent change from baseline, LS Mean (CYP11B1; [2]): 12.73%; Plasma cortisol AUC0-12 estimated percent change from baseline, LS Mean (CYP11B1; [2]): −0.52%; Plasma 11-deoxycortisol AUC0-12 estimated percent change from baseline, LS Mean (CYP11B1; [3]): 36.67%; Plasma cortisol AUC0-12 estimated percent change from baseline, LS Mean (CYP11B1; [3]): 4.04%; Plasma total cortisol, mean (CYP11B1; Day 2, predose, 0.5 mg, normal salt diet): 88.33 ng/mL; Plasma total cortisol, mean (CYP11B1; Day 2, predose, 1.5 mg, normal salt diet): 95.12 ng/mL; Plasma total cortisol, mean (CYP11B1; Day 2, predose, 2.5 mg, normal salt diet): 109.23 ng/mL; Plasma total cortisol, mean (CYP11B1; Day 10, 12 hours postdose, 0.5 mg, normal salt diet): 22.36 ng/mL; Plasma total cortisol, mean (CYP11B1; Day 10, 12 hours postdose, 1.5 mg, normal salt diet): 41.31 ng/mL; Plasma total cortisol, mean (CYP11B1; Day 10, 12 hours postdose, 2.5 mg, low salt diet): 22.93 ng/mL; Plasma total cortisol, mean (CYP11B1; Day 10, 12 hours postdose, 2.5 mg, normal salt diet): 31.86 ng/mL; Plasma total cortisol, mean (CYP11B1; Day 10, 12 hours postdose, 5.0 mg, low salt diet): 31.90 ng/mL; Plasma total cortisol, mean (CYP11B1; Day 10, 24 hours postdose, 0.5 mg, normal salt diet): 95.76 ng/mL; Plasma total cortisol, mean (CYP11B1; Day 10, 24 hours postdose, 1.5 mg, normal salt diet): 90.27 ng/mL; Plasma total cortisol, mean (CYP11B1; Day 10, 24 hours postdose, 2.5 mg, low salt diet): 94.36 ng/mL; Plasma total cortisol, mean (CYP11B1; Day 10, 24 hours postdose, 2.5 mg, normal salt diet): 126.20 ng/mL; Plasma total cortisol, mean (CYP11B1; Day 10, 24 hours postdose, 5.0 mg, low salt diet): 121.40 ng/mL; Plasma total cortisol, mean (CYP11B1; Day 10, predose, 0.5 mg, normal salt diet): 81.90 ng/mL; Plasma total cortisol, mean (CYP11B1; Day 10, predose, 1.5 mg, normal salt diet): 96.54 ng/mL; Plasma total cortisol, mean (CYP11B1; Day 10, predose, 2.5 mg, low salt diet): 91.85 ng/mL; Plasma total cortisol, mean (CYP11B1; Day 10, predose, 2.5 mg, normal salt diet): 106.52 ng/mL; Plasma total cortisol, mean (CYP11B1; Day 10, predose, 5.0 mg, low salt diet): 112.67 ng/mL; Plasma 11-deoxycortisol AUC0-12 estimated percent change from baseline, LS Mean (CYP11B1; [4]): −6.77%; Plasma cortisol AUC0-12 estimated percent change from baseline, LS Mean (CYP11B1; [4]): −19.53%; Plasma 11-deoxycortisol AUC0-12 estimated percent change from baseline, LS Mean (CYP11B1; [5]): 1.82%; Plasma cortisol AUC0-12 estimated percent change from baseline, LS Mean (CYP11B1; [5]): −4.45%; Plasma 11-deoxycortisol AUC0-12 estimated percent change from baseline, LS Mean (CYP11B1; [6]): −25.69%; Plasma cortisol AUC0-12 estimated percent change from baseline, LS Mean (CYP11B1; [6]): −38.02%; Plasma 11-deoxycortisol AUC0-12 estimated percent change from baseline, LS Mean (CYP11B1; [7]): −2.72%; Plasma cortisol AUC0-12 estimated percent change from baseline, LS Mean (CYP11B1; [7]): −9.23%; Plasma 11-deoxycortisol AUC0-12 estimated percent change from baseline, LS Mean (CYP11B1; [8]): 18.84%; Plasma cortisol AUC0-12 estimated percent change from baseline, LS Mean (CYP11B1; [8]): −37.25%; Plasma total cortisol, mean (CYP11B1; Day −1 predose, 0.5 mg, normal salt diet): 86.74 ng/mL; Plasma total cortisol, mean (CYP11B1; Day −1 predose, 1.5 mg, normal salt diet): 90.79 ng/mL; Plasma total cortisol, mean (CYP11B1; Day −1 predose, 2.5 mg, low salt diet): 90.39 ng/mL; Plasma total cortisol, mean (CYP11B1; Day −1 predose, 2.5 mg, normal salt diet): 107.50 ng/mL; Plasma total cortisol, mean (CYP11B1; Day −1 predose, 5.0 mg, low salt diet): 83.17 ng/mL; cortisol (total or free) or 11-deoxycortisol (CYP11B1): remained unaffected; cortisol (total or free) or 11-deoxycortisol (CYP11B1; listed as (R)-compound 1): no apparent effects; also recorded: no apparent differences; bioavailability [1]: 97.9%
